# Results published in US7875595B2, “2-polycyclic propynyl adenosine analogs having A2A agonist activity” (University of Virginia Patent Foundation, priority 2004, dated 2011).
# Like-named read-outs stand apart in the source and are kept apart here.
# Tests used:
# human A1 AR = biological target: T1, human A1 AR (Homo sapiens, UniProt P30542); assay: Radioligand competition binding to human A1 adenosine receptor (125I-ABA); conditions: membranes of CHO K1 cells expressing human A1 AR, read-out: A1 (nM) binding affinity
# T1 construct: expressed in transfected cells
# T1 sequence (P30542 1-326): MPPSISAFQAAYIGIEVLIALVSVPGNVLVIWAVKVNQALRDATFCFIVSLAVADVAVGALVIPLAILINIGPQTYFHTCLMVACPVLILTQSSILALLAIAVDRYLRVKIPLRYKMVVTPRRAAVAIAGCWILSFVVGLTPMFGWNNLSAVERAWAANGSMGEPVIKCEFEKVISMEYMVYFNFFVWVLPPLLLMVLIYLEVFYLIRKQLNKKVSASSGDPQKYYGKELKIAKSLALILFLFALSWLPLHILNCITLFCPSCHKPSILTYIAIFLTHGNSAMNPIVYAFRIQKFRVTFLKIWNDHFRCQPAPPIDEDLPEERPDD
# Method: (§1) Sf9 cells were cultured in Grace's medium supplemented with 10% fetal bovine serum, 2.5 μg/ml amphotericin B and 50 μg/ml gentamycin in an atmosphere of 50% N2/50% O2. Viral infection was performed at a density of 2.5×10^6 cells/mL with a multiplicity of infection of two for each virus used. Infected cells were harvested 3 days post-infection and washed twice in insect PBS (PBS pH 6.3). Cells were then resuspended in lysis buffer (20 mM HEPES pH 7.5, 150 mM NaCl, 3 mM MgCl2, 1 mM β-mercaptoethanol (BME), 5 μg/mL leupeptin, 5 μg/mL pepstatin A, 1 μg/mL aprotinin, and 0.1 mM PMSF) and snap frozen for storage at −80° C. Cells were thawed on ice, brought to 30 mL total volume in lysis buffer, and burst by N2 cavitation (600 psi for 20 minutes). A low-speed centrifugation was performed to remove any unlysed cells (1000×g for 10 minutes), followed by a high-speed centrifugation (17,000×g for 30 minutes). The pellet from the final centrifugation was homogenized in buffer containing 20 mM HEPES pH 8, 100 mM NaCl, 1% glycerol, 2 μg/mL leupeptin, 2 μg/mL pepstatin A, 2 μg/mL Aprotinin, 0.1 mM PMSF, and 10 μM GDP using a small glass homogenizer followed by passage through a 26 gauge needle. Membranes were aliquoted, snap frozen in liquid N2, and stored at −80° C. Membranes from cells stably expressing the human A1 AR(CHO K1 cells) or A3 AR (HEK 293 cells) were prepared as described (Robeva et al., 1996).
# (§2) Radioligand binding to recombinant human A2A receptors in Sf9 cell membranes was performed using either the radio labeled agonist, ^125I-APE (Luthin et al., 1995) or the radio labeled antagonist, ^125I-ZM241385 (^125I-ZM). To detect the high affinity, GTPγS-sensitive state of A1 and A3AR, we used the agonist, ^125I-ABA (Linden et al., 1985; Linden et al., 1993). Binding experiments were performed in triplicate with 5 μg (A2A) or 25 μg (A1 and A3) membrane protein in a total volume of 0.1 mL HE buffer (20 mM HEPES and 1 mM EDTA) with 1 U/mL adenosine deaminase and 5 mM MgCl2 with or without 50 μM GTPγS. […] Nonspecific binding was measured in the presence of 50 μM NECA. […]
# [1] = biological target: T2, recombinant human A2A receptors (Homo sapiens, UniProt P29274); assay: Radioligand competition binding to recombinant human A2A receptors in Sf9 cell membranes (125I-APE or 125I-ZM241385); conditions: read-out: A2A (nM) binding affinity
# T2 construct: expressed in transfected cells; host or cells: Sf9 insect cells, viral infection, membranes
# T2 sequence (P29274 whole entry): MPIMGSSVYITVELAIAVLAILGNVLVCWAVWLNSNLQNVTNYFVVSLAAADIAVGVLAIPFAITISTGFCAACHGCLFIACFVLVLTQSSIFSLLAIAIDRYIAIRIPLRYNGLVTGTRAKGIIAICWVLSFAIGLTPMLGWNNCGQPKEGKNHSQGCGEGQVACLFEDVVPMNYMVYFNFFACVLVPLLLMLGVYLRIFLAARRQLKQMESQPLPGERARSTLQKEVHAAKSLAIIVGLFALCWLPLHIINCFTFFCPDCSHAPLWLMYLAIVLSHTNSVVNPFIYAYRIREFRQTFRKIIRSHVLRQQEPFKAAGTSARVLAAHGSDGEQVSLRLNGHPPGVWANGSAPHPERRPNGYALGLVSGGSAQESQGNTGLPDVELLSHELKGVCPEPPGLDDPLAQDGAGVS
# Method: as §1, §2
# A3 AR = biological target: T3, A3 AR (Homo sapiens, UniProt P0DMS8); assay: Radioligand competition binding to human A3 adenosine receptor (125I-ABA); conditions: membranes of HEK 293 cells expressing A3 AR, read-out: A3 (nM) binding affinity
# T3 construct: expressed in transfected cells
# T3 sequence (P0DMS8 1-318): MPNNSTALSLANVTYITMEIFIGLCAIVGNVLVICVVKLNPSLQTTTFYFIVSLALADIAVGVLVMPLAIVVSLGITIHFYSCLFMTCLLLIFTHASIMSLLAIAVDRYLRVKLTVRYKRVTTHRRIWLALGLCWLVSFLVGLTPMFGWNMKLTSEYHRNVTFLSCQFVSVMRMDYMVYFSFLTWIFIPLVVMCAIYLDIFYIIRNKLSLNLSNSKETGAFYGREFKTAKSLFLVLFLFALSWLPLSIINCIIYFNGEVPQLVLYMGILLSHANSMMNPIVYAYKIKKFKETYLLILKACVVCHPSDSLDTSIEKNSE
# Method: as §1, §2
# human neutrophils = assay: Human neutrophil oxidative activity, luminol-enhanced chemiluminescence (fMLP stimulated); assay type: cell-based; conditions: human neutrophil experiment as described in Example 6 without Rolipram, peak chemiluminescence, read-out: Functional
# Method: Chemiluminescence Methods: Luminol enhanced chemiluminescence, a measure of neutrophil oxidative activity, is dependent upon both superoxide production and mobilization of the granule enzyme myeloperoxidase. The light is emitted from unstable high-energy oxygen species such as hypochlorous acid and singlet oxygen generated by activated neutrophils.
# Following incubation 100 µL aliquots of the PMN were transferred to wells (White walled clear bottom 96 well tissue culture plates Costar #3670; 2 wells/condition) containing […] and luminol (final concentration 100 µM) with or without adenosine agonist (final agonist concentrations 0.01-1000 nM). The plate was incubated 5 min (37° C.) and then fMLP ([…] in HA; final concentration […]) was added to all wells.
# Peak chemiluminescence was determined with a Victor 1420 Multilabel Counter in the chemiluminescence mode using the Wallace Workstation software. Data are presented as peak chemiluminescence as percent of activity in the absence of an adenosine agonist. The EC50 was determined using PRISM software. All compounds were tested with PMNs from three separate donors.
# Purified neutrophils (−98% neutrophils and >95% viable by trypan blue exclusion) containing <1 platelet per 5 neutrophils and <50 pg/ml endotoxin (limulus amebocyte lysate assay) were obtained from normal heparinized (10 U/ml) venous blood by a one step Ficoll-hypaque separation procedure (A. Ferrante et al., J. Immunol. Meth., 36, 109 (1980)).
# Luminol-enhanced chemiluminescence, a measure of neutrophil oxidative activity, is dependent upon both superoxide production and mobilization of the lysosomal granule enzyme myeloperoxidase. The light is emitted from unstable high-energy oxygen species generated by activated neutrophils. […] Then luminol (1×10^−4 M) enhanced f-met-leu-phe (1 mcM) stimulated chemiluminescence was read with a Chronolog® Photometer (Crono-log Corp., Havertown, Pa.) at 37° C. for 2-4 minutes. […]
Structure (SMILES),Ki (human A1 AR) [nM],Ki [1] [nM],Ki (A3 AR) [nM],"EC50 (human neutrophils; Homo sapiens, Neutrophil) [nM]",EC50 (human neutrophils) [nM]
"Nc1nc(C#CC2(O)C3CC4CC(C3)CC2C4)nc2c1ncn2[C@@H]1O[C@H](C(=O)NC2CC2)C(O)C1O (stereo in doubt) [Example 3, 5-[6-Amino-2-(2-hydroxy-adamantan-2-ylethynyl)-purin-9-yl]-3,4-dihydroxy-tetrahydro-furan-2-carboxylic acid cyclopropylamide]",67.2,1,45.4,2.4,–
"Nc1nc(C#CC2(O)CC3CCC2C3)nc2c1ncn2[C@@H]1O[C@H](C(=O)NC2CC2)C(O)C1O (stereo in doubt) [Example 2, 5-[6-Amino-2-(2-hydroxy-bicyclo[2.2.1]hept-2-ylethynyl)-purin-9-yl]-3,4-dihydroxy-tetrahydro-furan-2-carboxylic acid cyclopropylamide]",18,2,12,–,1.5
"Nc1nc(C#CC2(O)CC3CCC2C3)nc2c1ncn2[C@@H]1O[C@H](C(=O)NC2CC2)C(O)C1O (stereo in doubt) [Example 1, 5-[6-Amino-2-(2-hydroxy-bicyclo[2.2.1]hept-2-ylethynyl)-purin-9-yl]-3,4-dihydroxy-tetrahydro-furan-2-carboxylic acid cyclopropylamide]",10,0.6,7,0.9,–
